Laboratory results published in ChEMBL document CHEMBL3352142, “Discovery of a new class of cinnamyl-triazole as potent and selective inhibitors of aromatase (cytochrome P450 19A1)” (Bioorg Med Chem Lett, 2014).

Key:
[1] = target: T1, Aromatase (Homo sapiens, UniProt P11511)
T1 sequence (P11511 whole entry): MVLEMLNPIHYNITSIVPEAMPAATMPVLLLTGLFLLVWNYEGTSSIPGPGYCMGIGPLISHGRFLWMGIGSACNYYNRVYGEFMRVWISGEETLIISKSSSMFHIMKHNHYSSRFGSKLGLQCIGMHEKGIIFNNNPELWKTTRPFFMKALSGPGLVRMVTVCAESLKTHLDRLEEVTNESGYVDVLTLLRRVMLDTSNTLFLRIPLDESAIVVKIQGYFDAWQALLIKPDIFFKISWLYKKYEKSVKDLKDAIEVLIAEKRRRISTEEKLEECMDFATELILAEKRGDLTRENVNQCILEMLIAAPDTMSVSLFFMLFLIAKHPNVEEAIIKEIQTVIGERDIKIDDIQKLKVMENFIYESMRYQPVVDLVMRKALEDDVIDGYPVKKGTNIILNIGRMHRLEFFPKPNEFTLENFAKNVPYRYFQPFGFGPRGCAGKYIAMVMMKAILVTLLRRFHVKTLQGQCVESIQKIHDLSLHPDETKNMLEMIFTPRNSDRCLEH
Description: Inhibition of recombinant human CYP19A1 assessed as inhibition of DBF conversion to fluorescein by-product by fluorometry

[2] = target: T1, Aromatase; assay: Reversible inhibition of recombinant human CYP19A1 assessed as inhibition of DBF conversion to fluorescein by-product by fluorometry
[3] = target: T1, Aromatase; assay: Irreversible inhibition of recombinant human CYP19A1 assessed as inhibition of DBF conversion to fluorescein by-product by fluorometry

SMILES	Ki [1]	further results
CCOC(=O)c1nnn(Cc2ccccc2)c1-c1ccc(Cl)cc1	0.36 µM	–
CCOC(=O)c1nnn(Cc2ccccc2)c1-c1ccc(Br)cc1	–	Ki [2]: 0.64 µM
CCOC(=O)c1nnn(Cc2cccc(Br)c2)c1-c1ccc(Br)cc1	–	Ki [2]: 0.02 µM
CCOC(=O)c1nnn(Cc2ccccc2)c1-c1ccccc1	–	Ki [3]: 1.41 µM
CCOC(=O)c1nnn(Cc2cccc(Br)c2)c1-c1ccccc1	0.15 µM	–
CCOC(=O)c1nnn(Cc2ccccc2)c1-c1ccc2c(c1)OCO2	0.71 µM	–
CCOC(=O)c1nnn(Cc2ccccc2)c1-c1ccc(C)cc1	0.71 µM	–
